Results as given in PubChem BioAssay (NCI).
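At the GI50, growth is halved. TGI denotes the concentration required for complete inhibition of growth.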

How the values were obtained:
Assay in all cases: DTP human tumour cell line panel, 384-well format
[1] = tested on: RPMI-8226 leukemia
[2] = tested on: RXF 393 renal
[3] = tested on: SF-539 CNS
[4] = tested on: SK-MEL-28 melanoma
[5] = tested on: OVCAR-4 ovarian
[6] = tested on: HT29 colon
[7] = tested on: CCRF-CEM leukemia
[8] = tested on: SK-OV-3 ovarian
[9] = tested on: HOP-62 NSCLC
[10] = tested on: OVCAR-5 ovarian
[11] = tested on: UACC-257 melanoma
[12] = tested on: SN12C renal
[13] = tested on: NCI-H322M lung
[14] = tested on: A549 NSCLC
[15] = tested on: MDA-MB-435 melanoma
[16] = tested on: COLO 205 colon
[17] = tested on: BT-549 breast
[18] = tested on: HOP-92 NSCLC
[19] = tested on: IGROV1 ovarian
[20] = tested on: OVCAR-3 ovarian
[21] = tested on: T-47D breast
[22] = tested on: MCF7 breast
[23] = tested on: SF-268 CNS
[24] = tested on: A498 renal
[25] = tested on: CAKI-1 renal
[26] = tested on: EKVX NSCLC
[27] = tested on: HCC-2998 colon
[28] = tested on: NCI-H226 lung
[29] = tested on: SW-620 colon
[30] = tested on: NCI-H460 NSCLC
[31] = tested on: SF-295 CNS
[32] = tested on: OVCAR-8 ovarian
[33] = tested on: ACHN renal
[34] = tested on: SNB-19 CNS
[35] = tested on: HCT-15 colon
[36] = tested on: MOLT-4 leukemia
[37] = tested on: DU-145 prostate
[38] = tested on: SNB-75 CNS
[39] = tested on: NCI-H522 lung
[40] = tested on: SK-MEL-5 melanoma
[41] = tested on: HS 578T breast
[42] = tested on: U251 glioblastoma
[43] = tested on: M14 melanoma
[44] = tested on: PC-3 prostate
[45] = tested on: TK-10 renal
[46] = tested on: 786-0 renal
[47] = tested on: MALME-3M melanoma
[48] = tested on: SR leukemia
[49] = tested on: SK-MEL-2 melanoma
[50] = tested on: MDA-MB-468 breast
[51] = tested on: KM12 colon
[52] = tested on: UACC-62 melanoma
[53] = tested on: MDA-MB-231 breast
[54] = tested on: HL-60(TB) leukemia
[55] = tested on: NCI-H23 lung
[56] = tested on: NCI/ADR-RES ovarian

## C=C1C(=O)OC(CCCCCCCC)C1C(=O)O (configuration not stated)
[1]
  GI50: 10.3 µM
  TGI: 22.1 µM
[2]
  GI50: 11.5 µM
  TGI: 24.1 µM
[3]
  GI50: 20.1 µM
  TGI: 34.9 µM
[4]
  GI50: 23.3 µM
  TGI: 46.8 µM
[5]
  GI50: 16.9 µM
  TGI: 32.1 µM
[6]
  GI50: 23.4 µM
  TGI: 49.4 µM
[7]
  GI50: 12.2 µM
  TGI: 24.8 µM
[8]
  GI50: 23.6 µM
  TGI: 45.2 µM
[9]
  GI50: 12.9 µM
  TGI: 28.6 µM
[10]
  GI50: 39.3 µM
  TGI: > 100 µM
[11]
  GI50: 12.7 µM
  TGI: 27.3 µM
[12]
  GI50: 19 µM
  TGI: 36.1 µM
[13]
  GI50: 24.3 µM
  TGI: 50.3 µM
[14]
  GI50: 20.9 µM
  TGI: 41.8 µM
[15]
  GI50: 23.3 µM
  TGI: 44 µM
[16]
  GI50: 25.5 µM
  TGI: 40.4 µM
[17]
  GI50: 14.8 µM
  TGI: 38.3 µM
[18]
  GI50: 19.8 µM
  TGI: 41.1 µM
[19]
  GI50: 19.2 µM
  TGI: 37.4 µM
[20]
  GI50: 12.8 µM
  TGI: 26.2 µM
[21]
  GI50: 18.2 µM
  TGI: 32.3 µM
[22]
  GI50: 21.1 µM
  TGI: 39.6 µM
[23]
  GI50: 19 µM
  TGI: 37 µM
[24]
  GI50: 22.1 µM
  TGI: 45.5 µM
[25]
  GI50: 16.5 µM
  TGI: 30.7 µM
[26]
  GI50: 20.4 µM
  TGI: 37.7 µM
[27]
  GI50: 20.6 µM
  TGI: 35.2 µM
[28]
  GI50: 27.9 µM
  TGI: 49.7 µM
[29]
  GI50: 18.7 µM
  TGI: 33.2 µM
[30]
  GI50: 17.1 µM
  TGI: 31.3 µM
[31]
  GI50: 23.5 µM
  TGI: 57.5 µM
[32]
  GI50: 24.9 µM
  TGI: 54.9 µM
[33]
  GI50: 21.4 µM
  TGI: 39.3 µM
[34]
  GI50: 22.4 µM
  TGI: 47.3 µM
[35]
  GI50: 19.4 µM
  TGI: 37.1 µM
[36]
  GI50: 14.6 µM
  TGI: 27.9 µM
[37]
  GI50: 17.4 µM
  TGI: 31.5 µM
[38]
  GI50: 16.1 µM
  TGI: 32.1 µM
[39]
  GI50: 6.51 µM
  TGI: 19.2 µM
[40]
  GI50: 18.3 µM
  TGI: 32.5 µM
[41]
  GI50: 12.2 µM
  TGI: 25.5 µM
[42]
  GI50: 20.6 µM
  TGI: 37.9 µM
[43]
  GI50: 17.8 µM
  TGI: 34.5 µM
[44]
  GI50: 21 µM
  TGI: 39.1 µM
[45]
  GI50: 34.3 µM
  TGI: > 100 µM
[46]
  GI50: 16.7 µM
  TGI: 31.6 µM
[47]
  GI50: 15.5 µM
  TGI: 29.2 µM
[48]
  GI50: 3.03 µM
  TGI: 9.89 µM
[49]
  GI50: 28.7 µM
  TGI: 46.6 µM
[50]
  GI50: 3.04 µM
  TGI: 6.75 µM
[51]
  GI50: 14.6 µM
  TGI: 28.2 µM
[52]
  GI50: 33.9 µM
  TGI: > 100 µM
[53]
  GI50: 30.3 µM
  TGI: > 100 µM
[54]
  GI50: 13.5 µM
  TGI: 26.4 µM
[55]
  GI50: 14 µM
  TGI: 27.6 µM
[56]
  GI50: 22.3 µM
  TGI: 46.2 µM
